# From patent US9403874B2, “Peptides and use thereof” (IL YANG PHARM. CO.,LTD., priority 2012, dated 2016)
# Legend:
# Assay type in all cases: cell-based
# Settings in all cases: 100 ng/me of peptide; EBV-infected B cells stimulated with anti-CD150; ELISA of culture supernatant
# IL-8 = experiment: Reduction of IL-8 secretion in activated B cells (ELISA)
# Experimental: (§1) In order to determine the activity of the novel peptides synthesized in Example 1 for reducing the secretion of inflammatory cytokines, the activated pathogenic B cells were treated with each of the 18 types of synthesized novel peptides and the reduction in secretion of inflammatory cytokines from the B cells was monitored.
# (§2) Specifically, in order to determine whether the novel peptides could weaken the pathogenic B cells which are involved in the development of disease symptoms, the in vitro B cells model which is similar to the joint infiltrative B cells of rheumatoid arthritis was used. The activated pathogenic B cell was generated by stimulating Ebstein Barr virus (EBV)-infected B cells with anti-CD150 antibodies, and the cells were treated with […] of each of the 18 types of novel peptide.
# (§3) In order to confirm the effect of 18 types of novel peptides in reducing inflammatory cytokines, the secretion amount of various cytokines (IL-1A, IL-1B, IL-2, IL-4, IL-5, IL-6, IL-8, IL-10, IL-12A, IL-13, IL-17A, GM-CSF, IL-34) secreted from the activated B cells was measured. The supernatants of B cell culture were analyzed enzyme-linked immunosorbent assay (ELISA), and the difference in absorbance (450 nm-570 nm) of the color developing reagent was measured as test results. Based on the measured difference in absorbance (450 nm-570 nm) of the color developing reagent, the absorbance of cytokines secreted when treated with the 18 types of novel […] was calculated in percentage, while setting the absorbance corresponding to the cytokines secreted from the activated B cells stimulated by anti-CD150 as 100%.
# GM-CSF = experiment: Reduction of GM-CSF secretion in activated B cells (ELISA)
# Experimental: as §1, §2, §3
# IL-1B = experiment: Reduction of IL-1B secretion in activated B cells (ELISA)
# Experimental: as §1, §2, §3
# IL-34 = experiment: Reduction of IL-34 secretion in activated B cells (ELISA)
# Experimental: as §1, §2, §3
# IL-10 = experiment: Reduction of IL-10 secretion in activated B cells (ELISA)
# Experimental: as §1, §2, §3
# IL-12A = experiment: Reduction of IL-12A secretion in activated B cells (ELISA)
# Experimental: as §1, §2, §3
# IL-1A = experiment: Reduction of IL-1A secretion in activated B cells (ELISA)
# Experimental: as §1, §2, §3
# IL-17A = experiment: Reduction of IL-17A secretion in activated B cells (ELISA)
# Experimental: as §1, §2, §3
# IL-5 = experiment: Reduction of IL-5 secretion in activated B cells (ELISA)
# Experimental: as §1, §2, §3
# IL-6 = experiment: Reduction of IL-6 secretion in activated B cells (ELISA)
# Experimental: as §1, §2, §3
# IL-2 = experiment: Reduction of IL-2 secretion in activated B cells (ELISA)
# Experimental: as §1, §2, §3
# IL-13 = experiment: Reduction of IL-13 secretion in activated B cells (ELISA)
# Experimental: as §1, §2, §3
# IL-4 = experiment: Reduction of IL-4 secretion in activated B cells (ELISA)
# Experimental: as §1, §2, §3
Substance,Inhibition rate of each cytokine compared to CD150-stimulated EBV-t B cells (%) IL-8 (IL-8) [%],Inhibition rate of each cytokine compared to CD150-stimulated EBV-t B cells (%) GM-CSF (GM-CSF) [%],Inhibition rate of each cytokine compared to CD150-stimulated EBV-t B cells (%) IL-1B (IL-1B) [%],Inhibition rate of each cytokine compared to CD150-stimulated EBV-t B cells (%) IL-34 (IL-34) [%],Inhibition rate of each cytokine compared to CD150-stimulated EBV-t B cells (%) IL-10 (IL-10) [%],Inhibition rate of each cytokine compared to CD150-stimulated EBV-t B cells (%) IL-12A (IL-12A) [%],Inhibition rate of each cytokine compared to CD150-stimulated EBV-t B cells (%) IL-1A (IL-1A) [%],Inhibition rate of each cytokine compared to CD150-stimulated EBV-t B cells (%) IL-17A (IL-17A) [%],Inhibition rate of each cytokine compared to CD150-stimulated EBV-t B cells (%) IL-5 (IL-5) [%],Inhibition rate of each cytokine compared to CD150-stimulated EBV-t B cells (%) IL-6 (IL-6) [%],Inhibition rate of each cytokine compared to CD150-stimulated EBV-t B cells (%) IL-2 (IL-2) [%],Inhibition rate of each cytokine compared to CD150-stimulated EBV-t B cells (%) IL-13 (IL-13) [%],Inhibition rate of each cytokine compared to CD150-stimulated EBV-t B cells (%) IL-4 (IL-4) [%]
DGRTDG (SIS-1#9 peptide),15.4,15.0,18.2,15.0,14.2,20.8,20.4,9.2,16.2,18.8,15.5,13.2,16.0
GRTDG (SIS-1#10 peptide),17.9,13.0,4.2,27.0,7.5,29.8,7.8,25.0,24.2,25.0,11.4,25.7,19.5
MSLPSP (SIS-1#1 peptide),17.5,18.0,9.3,18.8,7.2,19.8,7.8,24.8,18.5,19.2,13.5,15.0,19.8
MSLPSPRDGRTDG (SIS-1#4 peptide),32.0,18.5,16.5,16.8,18.0,33.9,18.1,43.0,20.4,32.3,18.8,23.1,20.8
PSPRDG (SIS-1#5 peptide),10.5,7.5,14.2,13.2,7.2,8.9,8.3,12.8,9.8,18.7,6.8,15.2,13.2
PSPRDGRTDG (SIS-1#6 peptide),28.0,21.2,15.2,31.0,4.5,30.8,12.0,42.2,15.6,33.9,23.1,29.4,20.5
RDG (SIS-1#14 peptide),5.7,0.3,5.3,4.2,10.4,2.9,7.2,7.7,11.0,1.5,10.2,4.4,3.0
RDGR (SIS-1#15 peptide),15.0,1.5,5.7,6.0,7.2,10.8,11.5,10.1,6.4,4.8,12.7,7.2,6.3
RDGRT (SIS-1#16 peptide),33.0,6.2,17.0,23.1,31.2,29.8,16.2,32.8,20.3,22.8,15.4,24.5,23.9
RDGRTD (SIS-1#17 peptide),22.0,14.8,20.5,20.8,15.8,16.0,18.8,23.8,14.0,16.8,17.0,14.8,32.0
